Numbered stars: 1 amine (or outer) side, 2 acyl side, 3 side chain; on linkers, the order of the positions; unused ones are H or OH. Bridge positions count the residues as written; N and C are the ends. Peptide text beside a SMILES is read from it. * marks the point of attachment. NH(4-amidinobenzyl) = N=C(N)c1ccc(CN*)cc1; Glutaryl = O=C(CCCC(=O)[*:2])[*:1]; X3 = NC(N)=NC/C=C/CN*
Legend:
Furin [1] = biological target: T1, Furin (Homo sapiens, UniProt P09958); experiment: Inhibition of furin (unknown origin)
Furin [2] = biological target: T1, Furin; experiment: Inhibition of furin (unknown origin) using Pyr-RTKR-MCA as substrate incubated for 30 mins and measured by FRET assay
Mus musculus [3] = experiment: Antifibrotic activity against bleomycin-induced mouse lung fibrosis model assessed as inhibition of hydroxyproline content in lung at 10 mg/kg, po administered once daily; format: functional
Furin [4] = biological target: T1, Furin; experiment: Inhibition of furin in human U2OS cells measured after 24 hrs by fluorescence assay; format: cell-based
Mus musculus [5] = experiment: Antifibrotic activity against bleomycin-induced mouse lung fibrosis model assessed as inhibition of TGF-beta secretion in lung at 10 mg/kg, po administered once daily; format: functional
[6] = Cytotoxicity against chinese hamster CHO-DG44 cells assessed as cell viability at 100 uM and measured after 2 hrs by WST-1 method; format: toxicity, cell-based, Cricetulus griseus; conditions: read-out: Activity
RAW264.7 = experiment: Protective activity against Anthrax toxin-induced cytotoxicity in mouse RAW264.7 cells measured by WST-1 method; format: functional; conditions: dose 100 µM
[7] = Cytotoxicity against human HT-1080 cells assessed as cell viability at 100 uM and measured after 2 hrs by WST-1 method; format: toxicity, cell-based; conditions: read-out: Activity
[8] = Protective activity against Pseudomonas aeruginosa exotoxin A-induced cytotoxicity in chinese hamster CHO-DG44 cells measured by WST-1 method; format: functional, Cricetulus griseus; conditions: dose 100 µM
[9] = Inhibition of migration of human HT-1080 cells at 100 uM measured by calcein AM/ethidium homodimer (EthD-1) staining method; format: functional
[10] = Stability in mouse plasma assessed as half-life; format: ADME, cell-free
Furin [11] = biological target: T1, Furin; experiment: Inhibition of Recombinant vaccinia-expressed furin (unknown origin) using Pyr-RTKR-MCA as substrate and measured by fluorescence based assay

T1 sequence (P09958 whole entry): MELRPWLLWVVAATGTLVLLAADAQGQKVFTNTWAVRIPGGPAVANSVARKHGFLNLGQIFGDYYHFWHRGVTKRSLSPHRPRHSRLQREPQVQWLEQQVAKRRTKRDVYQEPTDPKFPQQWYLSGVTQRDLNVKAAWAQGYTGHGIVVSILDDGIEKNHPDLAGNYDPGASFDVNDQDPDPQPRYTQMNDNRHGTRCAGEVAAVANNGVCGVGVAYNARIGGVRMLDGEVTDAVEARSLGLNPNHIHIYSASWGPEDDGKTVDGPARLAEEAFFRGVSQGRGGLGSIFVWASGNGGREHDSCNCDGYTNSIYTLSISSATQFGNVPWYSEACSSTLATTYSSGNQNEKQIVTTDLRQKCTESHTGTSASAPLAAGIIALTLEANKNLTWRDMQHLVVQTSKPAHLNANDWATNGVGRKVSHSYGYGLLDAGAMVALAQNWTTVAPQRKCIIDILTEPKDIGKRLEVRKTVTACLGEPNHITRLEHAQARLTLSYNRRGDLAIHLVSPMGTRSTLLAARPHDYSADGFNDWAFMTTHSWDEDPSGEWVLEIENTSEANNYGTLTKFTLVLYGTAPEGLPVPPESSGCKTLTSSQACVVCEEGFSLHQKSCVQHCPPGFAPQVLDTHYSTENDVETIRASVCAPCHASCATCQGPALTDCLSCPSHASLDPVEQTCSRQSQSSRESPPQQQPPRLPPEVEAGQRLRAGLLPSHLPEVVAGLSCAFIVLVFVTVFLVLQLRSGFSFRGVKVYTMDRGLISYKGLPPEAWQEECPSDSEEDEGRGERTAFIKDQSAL

SMILES	viability at 2 h, 100 µM [6] [%]	Activity (RAW264.7) [%]	viability at 2 h, 100 µM [7] [%]	Activity [8] [%]	inhibition at 100 µM [9] [%]	other results
N=C(N)NCCC[C@@H]1NC(=O)CCCC(=O)NCCCC[C@@H](C(=O)N[C@@H](CCCNC(=N)N)C(=O)NCc2ccc(C(=N)N)cc2)NC(=O)[C@H](CCCNC(=N)N)NC1=O (RRKR-{NH(4-amidinobenzyl)}; linker N-3 via Glutaryl)	–	–	–	–	–	Ki (Furin [1]): 0.504 nM
N=C(N)c1ccc(OC2CCCC(Oc3ccc(C(=N)N)cc3)C2)cc1 (centres undefined)	–	–	–	–	–	Ki (Furin [2]): 1000 nM
N=C(N)N[C@H]1C[C@@H](NC(=N)N)[C@H](Oc2ccc(C(=N)N)cc2Cl)C[C@@H]1Oc1ccc(C(=N)N)cc1Cl	–	–	–	–	–	Ki (Furin [2]): 5 nM
CN1CCN(c2ncc(Oc3cc(CN4CCC(CC(=O)O)CC4)cc(-c4cc(Cl)cc(Cl)c4)n3)cn2)CC1	–	–	–	–	–	inhibition in vivo at 10 mg/kg (Mus musculus [3]): 46%; pXC50 (Furin [4]): 7.8; inhibition in vivo at 10 mg/kg (Mus musculus [5]): 66%
N=C(N)Nc1ccc(O[C@H]2C[C@@H](Oc3ccc(NC(=N)N)cn3)[C@H](NC(=N)N)C[C@@H]2NC(=N)N)nc1	> 90	80	> 90	100	–	–
N=C(N)Nc1ccc(O[C@H]2C[C@@H](Oc3ccc(NC(=N)N)c4ccccc34)[C@H](NC(=N)N)C[C@@H]2NC(=N)N)cc1	> 50	90	> 50	60	–	–
N=C(N)Nc1ccc(O[C@H]2C[C@@H](Oc3ccc(NC(=N)N)cc3NC(=N)N)[C@H](NC(=N)N)C[C@@H]2NC(=N)N)c(NC(=N)N)c1	> 90	>80	> 90	>70	60	–
CS(=O)(=O)CCCN1CCN(c2ncc(Oc3cc(CN4CCC(CC(=O)O)CC4)cc(-c4cc(Cl)cc(Cl)c4)n3)cn2)CC1	–	–	–	–	–	inhibition in vivo at 10 mg/kg (Mus musculus [3]): -1%; pXC50 (Furin [4]): 7.6; inhibition in vivo at 10 mg/kg (Mus musculus [5]): 40%
N=C(N)Nc1ccc(O[C@H]2C[C@@H](Oc3ccc(NC(=N)N)c4ccccc34)[C@H](NC(=N)N)C[C@@H]2NC(=N)N)c2ccccc12	> 90	80	> 90	30	40	–
N=C(N)Nc1ccc(O[C@H]2C[C@@H](Oc3ccc(NC(=N)N)cc3)[C@H](NC(=N)N)C[C@@H]2NC(=N)N)cc1	> 90	>90	> 90	>20	–	–
CC(C)(C)[C@H](NC(=O)[C@H](CCCNC(=N)N)NC(=O)Cc1ccc(CNC(=N)N)cc1)C(=O)N[C@@H](CCCN)C(=O)NCc1ccc(C(=N)N)cc1	–	–	–	–	–	Ki (Furin [1]): 0.0088 nM
N=C(N)N[C@H]1C[C@@H](NC(=N)N)[C@H](Oc2ccc(C(=N)N)cc2)C[C@@H]1Oc1ccc(C(=N)N)cc1	–	–	–	–	–	Ki (Furin [2]): 2 nM
CC(=O)N[C@@H](CCCN=C(N)N)C(=O)N[C@@H](C)C(=O)N[C@@H](CCCN=C(N)N)C(=O)N[C@@H](CCCN=C(N)N)C(=O)N[C@@H](CCCN=C(N)N)C(=O)N[C@@H](CCCCN)C(=O)N[C@@H](CCCCN)C(=O)NC/C=C/CN=C(N)N (Ac-RARRRKK-X3)	–	–	–	–	–	Ki (Furin [1]): 7 nM; half-life [10]: 3.3 h
N=C(N)Nc1ccc(O[C@H]2C[C@@H](Oc3ccc(NC(=N)N)c4ccccc34)[C@H](NC(=N)N)C[C@@H]2NC(=N)N)c(NC(=N)N)c1	> 80	50	> 80	–	> 60	–
N=C(N)Nc1ccc(Oc2cccc(Oc3ccc(NC(=N)N)cc3)c2)cc1	> 20	70	> 20	–	90	Ki (Furin [11]): 1500 nM
N=C(N)Nc1ccc(Oc2cccc(Oc3ccc(NC(=N)N)cc3NC(=N)N)c2)c(NC(=N)N)c1	> 60	100	> 60	<40	< 20	Ki (Furin [11]): 400 nM
N=C(N)c1ccc(/N=N/Nc2ccc(C(=N)N)cc2)cc1 [DIMINAZENE]	–	–	–	–	–	Ki (Furin [2]): 5420 nM
N=C(N)Nc1ccc(OCCCOc2ccc(NC(=N)N)cc2NC(=N)N)c(NC(=N)N)c1	> 90	50	> 90	<30	< 40	Ki (Furin [11]): 2700 nM
N=C(N)NCCC[C@@H]1NC(=O)CCCC(=O)NCCCC[C@@H](C(=O)N[C@@H](CCCCN)C(=O)NCc2ccc(C(=N)N)cc2)NC(=O)[C@H](CCCNC(=N)N)NC1=O (RRKK-{NH(4-amidinobenzyl)}; linker N-3 via Glutaryl)	–	–	–	–	–	Ki (Furin [1]): 1.05 nM
N=C(N)NCCC[C@@H]1NC(=O)CCCC(=O)NCCCC[C@@H](C(=O)N[C@@H](CCCNC(=N)N)C(=O)NCc2ccc(C(=N)N)cc2)NC(=O)[C@H](CCCNC(=N)N)NC(=O)[C@H](CCCNC(=N)N)NC1=O (RRRKR-{NH(4-amidinobenzyl)}; linker N-4 via Glutaryl)	–	–	–	–	–	Ki (Furin [1]): 0.68 nM
